Read-outs that look alike come from different tables or passages of the source.
Assays:
S1R = molecular target: T1, S1R (Cavia porcellus, UniProt Q60492); assay: S1R radiolabeled binding assay, guinea pig whole brain, [3H]-pentazocine
T1 construct: performed using Guinea pig whole brain according to the protocol previously reported; from tissue; host or cells: guinea pig whole brain membrane preparations
Experimental: Following 1 h incubation at 25° C., the binding assay was terminated by addition of cold buffer. The mixture was then filtered through Whatman GF/B filters and washed with cold buffer. Radioactivity was identified using the liquid scintillation counter.
Receptor binding data were analyzed by nonlinear regression of saturation and competition curves using the GraphPad Prism 7.0 software (GraphPad Software, La Jolla, Calif.).
(§1) Radiolabeled binding assays were conducted using two different species.

human S2R = molecular target: T2, human S2R (Homo sapiens, UniProt Q5BJF2); assay: Human S2R radiolabeled binding assay, Jurkat Clone E6-1 cell membranes, [3H] DTG; conditions: for Ki: human membranes (Compounds 10-76); for S2R % at 1 μM: human membranes
T2 construct: performed using Jurkat cell line Clone E6-1 cells with 0.025 μM; endogenous in cells; host or cells: Jurkat Clone E6-1 cell membranes
T2 sequence (Q5BJF2 whole entry): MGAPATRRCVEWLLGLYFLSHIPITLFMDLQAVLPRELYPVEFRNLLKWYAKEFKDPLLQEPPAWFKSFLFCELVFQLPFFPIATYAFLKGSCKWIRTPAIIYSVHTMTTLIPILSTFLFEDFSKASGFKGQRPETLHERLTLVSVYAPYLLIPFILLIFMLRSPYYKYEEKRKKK
Experimental: The radiolabeled binding assay of the human S1R and S2R were performed using human jurkat cell membranes according to the protocol previously reported (Ganapathy, et al., 1999, J. Pharmacol. Exp. Ther. 289:251-60).
DTG as radioligand. […] The cells were incubated in RPMI 1640 Medium with 10% FBS, 100 U/ml penicillin and […] streptomycin. After incubation, the cells were suspended in 5 mM potassium phosphate buffer (pH=7.6). The membrane protein concentration was controlled at 5 mg/mL. The collected membrane protein was incubated with ligands in potassium phosphate buffer for 1 hour at room temperature and terminated by adding ice-cold buffer. Then the mixture is filtered with 0.7 μm syringe filter and washed three times. The radioactivity is determined by liquid scintillation spectrometry.
Radiolabeled binding assays were conducted using two different species. Compounds 1-9 were assayed using guinea pig brain membranes for the binding assays. Compounds 10-76 were assayed using human brain membranes for the binding assays.

human S1R = molecular target: T3, human S1R (Homo sapiens, UniProt Q99720); assay: Human S1R radiolabeled binding assay, human jurkat cell membranes, [3H]-pentazocine; conditions: human membranes (Compounds 10-76)
T3 construct: experimentally determined in human jurkat cell membranes using 15.0 nM; endogenous in cells; host or cells: human Jurkat cell membranes
T3 sequence (Q99720 whole entry): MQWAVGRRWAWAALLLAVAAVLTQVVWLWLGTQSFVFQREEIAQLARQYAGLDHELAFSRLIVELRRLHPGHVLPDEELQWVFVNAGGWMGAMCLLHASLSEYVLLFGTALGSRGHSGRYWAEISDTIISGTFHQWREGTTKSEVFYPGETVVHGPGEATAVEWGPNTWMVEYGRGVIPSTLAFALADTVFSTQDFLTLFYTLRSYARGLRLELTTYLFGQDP
Experimental: The binding process was terminated by addition of cold buffer. Then, the mixture was filtered and washed with cold buffer. Radioactivity was identified using the TopCount NTX liquid scintillation counter (PerkinElmer, Waltham, Mass.).
as §1

[1] = guinea pig brain membranes (Compounds 1-9), read-out: S1R Ki

T1 sequence (Q60492 whole entry): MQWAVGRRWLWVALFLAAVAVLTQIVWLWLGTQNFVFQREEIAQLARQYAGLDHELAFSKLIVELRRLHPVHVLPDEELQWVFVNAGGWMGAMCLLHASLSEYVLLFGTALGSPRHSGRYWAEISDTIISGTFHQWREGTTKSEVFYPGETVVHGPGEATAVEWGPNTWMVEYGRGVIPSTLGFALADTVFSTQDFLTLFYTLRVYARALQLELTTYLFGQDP

| Ki (human S2R) [nM] | Ki (human S1R) [nM] | SMILES | other results |
| --- | --- | --- | --- |
|  |  | Cn1nc(CN2CCN(CCc3ccccc3)CC2)nc1-c1ccc(C(C)(C)C)cc1 [Compound 5, 1-((5-(4-(tert-butyl)phenyl)-1-methyl-1H-1,2,4-triazol-3-yl)methyl)-4-phenethylpiperazine] | Ki (S1R): 10.2 nM |
| > 1000 | 9.9 | Cn1nc(CN2CCCC2)nc1-c1ccc(C2(C(F)(F)F)CC2)cc1 [Compound 10, 1-methyl-3-(pyrrolidin-1-ylmethyl)-5-(4-(1-(trifluoromethyl)cyclopropyl)phenyl)-1H-1,2,4-triazole] |  |
| > 1000 | 20.8 | Cc1cc(-c2nc(CN3CCCC3)nn2C)ccc1C(F)(F)F [Compound 13, 1-methyl-5-(3-methyl-4-(trifluoromethyl)phenyl)-3-(pyrrolidin-1-ylmethyl)-1H-1,2,4-triazole] |  |
|  |  | CN(Cc1nc(-c2ccc(C(C)(C)C)cc2)n(C)n1)CC1CC1 [Compound 9, 1-(5-(4-(tert-butyl)phenyl)-1-methyl-1H-1,2,4-triazol-3-yl)-N-(cyclopropylmethyl)-N-methylmethanamine] | Ki (S1R; [1]): 0.61 nM |
|  |  | CN1CCN(Cc2nc(-c3ccc(C(C)(C)C)cc3)n(C)n2)CC1 [Compound 3, 1-((5-(4-(tert-butyl)phenyl)-1-methyl-1H-1,2,4-triazol-3-yl)methyl)-4-methylpiperazine] | Ki (S1R; [1]): 131 nM |
|  | 0.56 | CC(C)(C)c1ccc(-c2nc(CN3CCC4(CCCC4)C3)nn2C2CC2)cc1 [Compound 75, 2-((5-(4-(tert-butyl)phenyl)-1-cyclopropyl-1H-1,2,4-triazol-3-yl)methyl)-2-azaspiro[4.4]nonane] | S2R % at 1 μM (human S2R): 105% at 1 μM |
|  | 0.52 | CCn1nc(CN2CCC3(CCCC3)C2)nc1-c1ccc(C(C)(C)C)cc1 [Compound 65, 2-((5-(4-(tert-butyl)phenyl)-1-ethyl-1H-1,2,4-triazol-3-yl)methyl)-2-azaspiro[4.4]nonane] | S2R % at 1 μM (human S2R): 96% at 1 μM |
|  |  | Cn1nc(CN2CCCCC2)nc1-c1ccc(C(C)(C)C)cc1 [Compound 1, 1-((5-(4-(tert-butyl)phenyl)-1-methyl-1H-1,2,4-triazol-3-yl)methyl)piperidine] | Ki (S1R; [1]): 3.72 nM |
|  |  | Cn1nc(CN2CCN(c3ccccc3)CC2)nc1-c1ccc(C(C)(C)C)cc1 [Compound 4, 1-((5-(4-(tert-butyl)phenyl)-1-methyl-1H-1,2,4-triazol-3-yl)methyl)-4-phenylpiperazine] | Ki (S1R): 14.3 nM |
| > 1000 | 32.3 | Cn1nc(CN2CCCC2)nc1-c1cccc(C2(C(F)(F)F)CC2)c1 [Compound 17, 1-methyl-3-(pyrrolidin-1-ylmethyl)-5-(3-(1-(trifluoromethyl)cyclopropyl)phenyl)-1H-1,2,4-triazole] |  |
| > 1000 | 35.7 | Cn1nc(CN2CCCC2)nc1-c1ccc2c(c1)CCCC2 [Compound 15, 1-methyl-3-(pyrrolidin-1-ylmethyl)-5-(5,6,7,8-tetrahydronaphthalen-2-yl)-1H-1,2,4-triazole] |  |
|  |  | Cn1nc(CN2CCN(Cc3ccccc3)CC2)nc1-c1ccc(C(C)(C)C)cc1 [Compound 6, 1-benzyl-4-((5-(4-(tert-butyl)phenyl)-1-methyl-1H-1,2,4-triazol-3-yl)methyl)piperazine] | Ki (S1R; [1]): 5.52 nM |
| > 1000 | 37 | Cn1nc(CN2CCCC2)nc1-c1ccc2cc(Cl)sc2c1 [Compound 25, 5-(2-chlorobenzo[b]thiophen-6-yl)-1-methyl-3-(pyrrolidin-1-ylmethyl)-1H-1,2,4-triazole] |  |
| > 1000 | 22.1 | Cn1nc(CN2CCCC2)nc1-c1ccc(Cl)c(Cl)c1 [Compound 11, 5-(3,4-dichlorophenyl)-1-methyl-3-(pyrrolidin-1-ylmethyl)-1H-1,2,4-triazole] |  |
|  |  | Cn1nc(CN2CCC(Cc3ccccc3)CC2)nc1-c1ccc(C(C)(C)C)cc1 [Compound 7, 4-benzyl-1-((5-(4-(tert-butyl)phenyl)-1-methyl-1H-1,2,4-triazol-3-yl)methyl)piperidine] | Ki (S1R; [1]): 2.02 nM |
|  |  | Cn1nc(CN2CCOCC2)nc1-c1ccc(C(C)(C)C)cc1 [Compound 2, 4-((5-(4-(tert-butyl)phenyl)-1-methyl-1H-1,2,4-triazol-3-yl)methyl)morpholine] | Ki (S1R; [1]): 56 nM |
| 750 | 13.9 | CC(C)(C)c1ccc(-c2nc(CN3CCCC3)nn2C2CC2)cc1 [Compound 32, 5-(4-(tert-butyl)phenyl)-1-cyclopropyl-3-(pyrrolidin-1-ylmethyl)-1H-1,2,4-triazole] |  |
| 190 | 0.89 | Cn1nc(CN2CCC(C)(C)C2)nc1-c1ccc(C(C)(C)C)cc1 [Compound 26, 5-(4-(tert-butyl)phenyl)-3-((3,3-dimethylpyrrolidin-1-yl)methyl)-1-methyl-1H-1,2,4-triazole] |  |
| 1710 | 4.8 | CCn1nc(CN2CCCC2)nc1-c1ccc(C(C)(C)C)cc1 [Compound 30, 5-(4-(tert-butyl)phenyl)-1-ethyl-3-(pyrrolidin-1-ylmethyl)-1H-1,2,4-triazole] |  |
|  | 0.57 | CCn1nc(CN2CC3CCCC3C2)nc1-c1ccc(C(C)(C)C)cc1 (stereo not shown) [Compound 66, 2-((5-(4-(tert-butyl)pheny)-1-ethyl-1H-1,2,4-triazol-3-yl)methyl)octahydrocyclopenta[c]pyrrole] | S2R % at 1 μM (human S2R): 73% at 1 μM |

| SMILES | Ki (human S2R) [nM] | Ki (human S1R) [nM] | other results |
| --- | --- | --- | --- |
| CC(C)n1nc(CN2CCCC2)nc1-c1ccc(C(C)(C)C)cc1 [Compound 31, 5-(4-(tert-butyl)phenyl)-1-isopropyl-3-(pyrrolidin-1-ylmethyl)-1H-1,2,4-triazole] | 1460 | 2.16 |  |
